The record followed here is patent US20120065199A1, “SUBSTITUTED QUINOLINES FOR USE AS VEGF INHIBITORS” (CLANOTECH AB, priority 2009, published 2012).

SMILES strings stand for the structures.

Holding throughout (format): cell-based, porcine
The subject of one assay is PAE/VEGFR-2 cells. In words: Cell shape assay, PAE/VEGFR-2 cells with VEGF-A. As to conditions: VEGF-A induced cell morphology; tested at 10, 50 and 100 μM; No effect = no morphological changes up to 100 μM. As for the experimental part: (§1) One of the used assays comprised a culture of PAE/VEGFR-2 and PAE/VEGFR3 cells. Morphological changes of the cells were recorded microscopically after addition of VEGF-A and VEGF-C respectively, followed by the test compound at a final concentration up to 100 μM. Growth inhibitions of the PAE/VEGFR-2 cells were detected in the presence of the compound of Example 1 according to the invention at 10 μM or lower. Furthermore, the inventive compounds were tested in PAE/VEGFR-3 cells and morphological changes of the cells were recorded microscopically after addition of the VEGF-C, followed by the test compound at a final concentration up to 100 μM. Growth inhibitions of the PAE/VEGFR-3 cells were detected in the presence of several of Examples according to the invention. The compounds were tested at 10, 50 and 100 μM. The effect of the test compounds in Table 1 is expressed as concentration of compound that inhibits the cell morphology induced by VEGF A and VEGF C. No effect means that no morphological changes were seen up to 100 μM compound concentrations.
(§2) In Table 1, data from both the cell shape assay and the chemotaxis assay are shown. Thus, under “Cell Shape: PAE/VEGFR-2 with VEGF antagonist conc. (μM)” and “Cell Shape: PAE/VEGFR-3 with VEGF antagonist conc. (μM)” the concentration of the indicated inventive compound that gave restitution of cell morphology in the cell shape assay is shown. Data under “Chemotaxis: VEGFR-2% inhibition of cell migration” and “Chemotaxis: VEGFR-3% inhibition of cell migration” show the percentage inhibition of PAE cells expressing VEGFR-2 or 3 in the presence of 10 μM of the indicated inventive compound.

The test system of assay [1] is PAE cells expressing VEGFR2. Briefly: Chemotaxis assay (modified Boyden chamber), PAE/VEGFR-2 toward VEGF-A. The following applies: VEGF-A as chemo-attractant, absence of serum; for inhibition at 10 µM: Sus scrofa, PAE, 10 μM compound, read-out: Chemotaxis: VEGFR-2 inhibition of cell migration (%) at 10 μM compound concentration. How it is done: (§3) Additionally, the effect of the compounds was tested in this capacity of influencing chemotaxis. The test compounds were tested in porcine aorta endothelial (PAE) cells expressing VEGFR2 and VEGFR3 (PAE/VEGFR-2 and PAE/VEGFR-3). The method used is a modified Boyden chamber assay. The migration of the PAE cells expressing VEGFR2 and VEGFR3 receptors toward VEGF-A and VEGF-C respectively used as chemo-attractant was studied through micropore polycarbonate filter and was scored in the absence of serum. The assay was performed in the presence of compounds at 10 μM.
as §2

In assay [2] the test system is PAE cells expressing VEGFR3. Briefly: Chemotaxis assay (modified Boyden chamber), PAE/VEGFR-3 toward VEGF-C. The following applies: Sus scrofa, 10 μM compound, VEGF-C as chemo-attractant, absence of serum, read-out: Chemotaxis: VEGFR-3 inhibition of cell migration (%) at 10 μM compound concentration. As for the experimental part:
as §3, §2

A further assay deals with PAE/VEGFR-3 cells. Briefly: Cell shape assay, PAE/VEGFR-3 cells with VEGF-C. As to conditions: VEGF-C induced cell morphology, tested at 10, 50 and 100 μM, No effect = no morphological changes up to 100 μM; for minimal effective concentration: Sus scrofa, read-out: Cell Shape: PAE/VEGFR-3 with VEGF antagonist conc. (μM) that gives inhibition. As for the experimental part:
as §1, §2

In the case of `CNC(=O)c1ccc2ncc(C(=O)OCN(C)C(=O)OC)c(Nc3ccc(OC)cc3)c2c1` [Example 2, (Methoxycarbonyl(methyl)amino)methyl 4-(4-methoxyphenylamino)-6-(methylcarbamoyl)quinoline-3-carboxylate], in the assay on PAE/VEGFR-2 cells, the “Cell Shape: PAE/VEGFR-2 with VEGF antagonist conc. (μM) that gives inhibition” value is listed as “No effect”. In addition, the results for the inhibition at 10 µM in assay [1] and in assay [2] were 39% and 45%, respectively. Also, the “Cell Shape: PAE/VEGFR-3 with VEGF antagonist conc. (μM) that gives inhibition” value in the assay with PAE/VEGFR-3 cells is “No effect”.
For `CNC(=O)c1ccc2ncc(C(=O)OCN(C)C(=O)c3ccccc3)c(Nc3ccc(OC)cc3)c2c1` [Example 3, (N-methylbenzamido)methyl 4-(4-methoxyphenylamino)-6-(methylcarbamoyl)-quinoline-3-carboxylate], in the assay on PAE/VEGFR-2 cells, the “Cell Shape: PAE/VEGFR-2 with VEGF antagonist conc. (μM) that gives inhibition” value is reported as “No effect”. Also, the values for the inhibition at 10 µM in assay [1] and in assay [2] were 28% and 36%, respectively. Also, the “Cell Shape: PAE/VEGFR-3 with VEGF antagonist conc. (μM) that gives inhibition” value with PAE/VEGFR-3 cells is reported as “No effect”.
Regarding `CNC(=O)c1ccc2ncc(C(=O)OCCN(C)C)c(Nc3ccc(OC)cc3)c2c1` [Example 4, 2-(dimethylamino)ethyl 4-(4-methoxyphenylamino)-6-(methylcarbamoyl)-quinoline-3-carboxylate], the “Cell Shape: PAE/VEGFR-2 with VEGF antagonist conc. (μM) that gives inhibition” value with PAE/VEGFR-2 cells is recorded as “No effect”. Besides, the inhibition at 10 µM in assay [1] is 21%; in assay [2], 63%. In the assay with PAE/VEGFR-3 cells, the minimal effective concentration worked out at 100 µM.
The corresponding values for `CNC(=O)c1ccc2ncc(C(=O)OCC(=O)N(C)C)c(Nc3ccc(OC)cc3)c2c1` [Example 5, 2-(dimethylamino)-2-oxoethyl-4-(4-methoxyphenylamino)-6-(methyl-carbamoyl)quinoline-3-carboxylate] are “No effect”, 2%, 64% and 100 µM.
Consider `CNC(=O)c1ccc2ncc(C(=O)OC(C)C(=O)OC)c(Nc3ccc(OC)cc3)c2c1` (centres unmarked) [Example 6, (2-Methoxy-1-methyl-2-oxo-ethyl) 4-[(4-methoxyphenyl)amino]-6-(methylcarbamoyl)quinoline-3-carboxylate], for which, in the assay with PAE/VEGFR-2 cells, the “Cell Shape: PAE/VEGFR-2 with VEGF antagonist conc. (μM) that gives inhibition” value is “No effect”. The inhibition at 10 µM in assay [1] came out at 23%; in assay [2], 69%. For the same compound, in the assay on PAE/VEGFR-3 cells, the minimal effective concentration worked out at 50 µM.
Turning to `CNC(=O)c1ccc2ncc(C(=O)OCOC(C)=O)c(Nc3ccc(OC)cc3)c2c1` [Example 7, Acetoxymethyl 4-[(4-methoxyphenyl)amino]-6-(methylcarbamoyl)quinoline-3-carboxylate], in the assay with PAE/VEGFR-2 cells, the “Cell Shape: PAE/VEGFR-2 with VEGF antagonist conc. (μM) that gives inhibition” value was “No effect”. Moreover, the “Chemotaxis: VEGFR-2 inhibition of cell migration (%) at 10 μM compound concentration” value in assay [1] is recorded as “No effect”. In assay [2], the inhibition at 10 µM was found to be 25%. Besides, in the assay with PAE/VEGFR-3 cells, the minimal effective concentration was 50 µM.
Take `CNC(=O)c1ccc2ncc(C(=O)OCN(c3ccccc3)S(C)(=O)=O)c(Nc3ccc(OC)cc3)c2c1` [Example 8, (Methylsulfonyl(phenyl)amino)methyl 4-[(4-methoxyphenyl)amino]-6-(methylcarbamoyl)quinoline-3-carboxylate]: the “Cell Shape: PAE/VEGFR-2 with VEGF antagonist conc. (μM) that gives inhibition” value with PAE/VEGFR-2 cells was “No effect”. Moreover, the “Chemotaxis: VEGFR-2 inhibition of cell migration (%) at 10 μM compound concentration” value in assay [1] is “No effect”. The inhibition at 10 µM in assay [2] was 18%. Further, the minimal effective concentration in the assay on PAE/VEGFR-3 cells was 100 µM.
Regarding `CNC(=O)c1ccc2ncc(C(=O)OC(C)C(=O)O)c(Nc3ccc(OC)cc3)c2c1` (centres unmarked) [Example 9, 2-[4-[(4-Methoxyphenyl)amino]-6-(methylcarbamoyl)quinoline-3-carbonyl]oxypropanoic Acid], the “Cell Shape: PAE/VEGFR-2 with VEGF antagonist conc. (μM) that gives inhibition” value in the assay on PAE/VEGFR-2 cells is on record as “No effect”. Besides, the inhibition at 10 µM was 38% in assay [1] and 52% in assay [2]. In addition, in the assay on PAE/VEGFR-3 cells, the “Cell Shape: PAE/VEGFR-3 with VEGF antagonist conc. (μM) that gives inhibition” value is recorded as “No effect”.
Regarding `CNC(=O)c1ccc2ncc(C(=O)OCCn3ccnc3)c(Nc3ccc(OC)cc3)c2c1` [Example 10, 2-Imidazol-1-ylethyl 4-[(4-methoxyphenyl)amino]-6-(methylcarbamoyl)-quinoline-3-carboxylate], the “Cell Shape: PAE/VEGFR-2 with VEGF antagonist conc. (μM) that gives inhibition” value in the assay with PAE/VEGFR-2 cells is “No effect”. Moreover, the inhibition at 10 µM in assay [1] was 32%; in assay [2], 53%. In the assay on PAE/VEGFR-3 cells, the minimal effective concentration was 10 µM.
For `CNC(=O)c1ccc2ncc(C(=O)OCCN3CCOCC3)c(Nc3ccc(OC)cc3)c2c1` [Example 11, 2-Morpholinoethyl 4-[(4-methoxyphenyl)amino]-6-(methylcarbamoyl)-quinoline-3-carboxylate], in the assay with PAE/VEGFR-2 cells, the “Cell Shape: PAE/VEGFR-2 with VEGF antagonist conc. (μM) that gives inhibition” value was “No effect”. For the same compound, the inhibition at 10 µM came to 10% in assay [1] and 83% in assay [2]. For the same compound, in the assay on PAE/VEGFR-3 cells, the minimal effective concentration is 10 µM.
Turning to `CNC(=O)c1ccc2ncc(C(=O)OCc3oc(=O)oc3C)c(Nc3ccc(OC)cc3)c2c1` [Example 12, (5-Methyl-2-oxo-1,3-dioxol-4-yl)methyl 4-[(4-methoxyphenyl)amino]-6-(methylcarbamoyl)quinoline-3-carboxylate], the “Cell Shape: PAE/VEGFR-2 with VEGF antagonist conc. (μM) that gives inhibition” value in the assay with PAE/VEGFR-2 cells is reported as “No effect”. Besides, the “Chemotaxis: VEGFR-2 inhibition of cell migration (%) at 10 μM compound concentration” value in assay [1] is recorded as “No effect”. Besides, the inhibition at 10 µM in assay [2] turned out to be 46%. Further, the minimal effective concentration with PAE/VEGFR-3 cells was determined as 100 µM.
On to `CNC(=O)c1ccc2ncc(C(=O)OCCn3ccnc3)c(Nc3ccc(F)cc3)c2c1` [Example 13, 4-(4-Fluoro-phenylamino)-6-methylcarbamoyl-quinoline-3-carboxylic acid 2-imidazol-1-yl-ethylester], for which, in the assay on PAE/VEGFR-2 cells, the “Cell Shape: PAE/VEGFR-2 with VEGF antagonist conc. (μM) that gives inhibition” value is “No effect”. Besides, the “Chemotaxis: VEGFR-2 inhibition of cell migration (%) at 10 μM compound concentration” value in assay [1] is recorded as “No effect”. Moreover, in assay [2], the inhibition at 10 µM is 27%. For the same compound, in the assay on PAE/VEGFR-3 cells, the minimal effective concentration came out at 50 µM.
Consider `CNC(=O)c1ccc2ncc(C(=O)OCn3ccnc3)c(Nc3ccc(F)cc3)c2c1` [Example 14, 4-(4-Fluoro-phenylamino)-6-methylcarbamoyl-quinoline-3-carboxylic acid imidazol-1-yl-methylester], for which the “Cell Shape: PAE/VEGFR-2 with VEGF antagonist conc. (μM) that gives inhibition” value in the assay on PAE/VEGFR-2 cells is listed as “No effect”. In addition, the “Chemotaxis: VEGFR-2 inhibition of cell migration (%) at 10 μM compound concentration” value in assay [1] is reported as “No effect”. Moreover, the inhibition at 10 µM in assay [2] amounted to 30%. The minimal effective concentration in the assay on PAE/VEGFR-3 cells is 50 µM.
For the compound `CNC(=O)c1ccc2ncc(C(=O)OCCN3CCOCC3)c(Nc3ccc(F)cc3)c2c1` [Example 15, 2-Morpholinoethyl 4-[(4-fluorophenyl)amino]-6-(methylcarbamoyl)quinoline-3-carboxylate], the “Cell Shape: PAE/VEGFR-2 with VEGF antagonist conc. (μM) that gives inhibition” value with PAE/VEGFR-2 cells was “No effect”. Also, the inhibition at 10 µM in assay [1] was determined as 31%; in assay [2], 59%. Besides, the minimal effective concentration in the assay with PAE/VEGFR-3 cells was 100 µM.
